Where two headings read alike, the source gives them in different places.
Experiments:
[1] = tested on: HepG2-A16-CD81 hepatocytes; assay: HepG2 cytotoxicity screening (CellTiter-Glo); conditions: HepG2-A16-CD81, read-out: HepG2 tox IC50
[2] = tested on: P. berghei liver stage (PbLuc); assay: P. berghei luciferase liver stage (PbLuc) assay in HepG2-A16-CD81 hepatocytes; assay type: cell-based, Plasmodium berghei; conditions: Plasmodium berghei, HepG2-A16-CD81, 48 h, 48 h liver stage, HepG2-A16-CD81; read-out: Pbluc (EEF) IC50
[3] = biological target: recombinant firefly luciferase (Photinus pyralis, UniProt P08659); assay: biochemical; conditions: read-out: rLuc IC50
Sequence of recombinant firefly luciferase (P08659 whole entry): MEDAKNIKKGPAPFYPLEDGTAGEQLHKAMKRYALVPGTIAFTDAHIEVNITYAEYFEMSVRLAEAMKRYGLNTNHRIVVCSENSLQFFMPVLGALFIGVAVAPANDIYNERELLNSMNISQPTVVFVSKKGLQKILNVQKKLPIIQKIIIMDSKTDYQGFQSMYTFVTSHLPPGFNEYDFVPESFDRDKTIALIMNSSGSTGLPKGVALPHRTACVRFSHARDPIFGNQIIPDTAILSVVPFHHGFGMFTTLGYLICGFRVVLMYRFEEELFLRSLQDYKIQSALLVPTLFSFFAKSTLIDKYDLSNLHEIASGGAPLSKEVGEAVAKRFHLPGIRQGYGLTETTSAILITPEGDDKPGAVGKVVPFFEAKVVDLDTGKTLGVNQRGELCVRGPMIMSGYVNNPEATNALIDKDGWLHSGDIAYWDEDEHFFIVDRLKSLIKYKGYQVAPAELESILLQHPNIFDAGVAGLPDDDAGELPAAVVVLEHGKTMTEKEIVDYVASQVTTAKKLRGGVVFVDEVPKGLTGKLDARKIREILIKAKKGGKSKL

[4] = tested on: P. falciparum Dd2 (PfLuc) line expressing firefly luciferase, asexual blood stage; assay: microbe, parasite or virus in culture; assay type: cell-based, Plasmodium falciparum; conditions: Plasmodium falciparum
P. falciparum Dd2 = assay: SYBR green I asexual blood stage proliferation assay (96 h); assay type: cell-based, Plasmodium falciparum; conditions: Plasmodium falciparum, DD2, Sybr Green I, 11-pt dose response, 96hr; for IC50: read-out: CDD P. falciparum Sybr Green I ABS 11-pt Reconfirmation Dose Response (96hr): IC50; for Emax: read-out: CDD P. falciparum Sybr Green I ABS 11-pt Reconfirmation Dose Response (96hr): Maximum inhibition (%)
[5] = DD2, read-out: CDD P. falciparum Luciferase ABS 11-pt Reconfirmation Dose Response (48hr): IC50 (μM), 11-pt dose response, 48hr
[6] = DD2, 8-pt dose response, 96hr, read-out: CDD P. falciparum Luciferase ABS 8-pt Reconfirmation Dose Response (96hr): IC50
[7] = DD2, 8-pt dose response, 96hr, read-out: CDD P. falciparum Luciferase ABS 8-pt Reconfirmation Dose Response (96hr): Maximum inhibition (%)
[8] = DD2, 11-pt dose response, 48hr, read-out: CDD P. falciparum Luciferase ABS 11-pt Reconfirmation Dose Response (48hr): Maximum inhibition (%)
[9] = DD2, 11-pt dose response, 96hr, read-out: CDD P. falciparum Luciferase ABS 11-pt Reconfirmation Dose Response (96hr): IC50
[10] = DD2, 11-pt dose response, 96hr, read-out: CDD P. falciparum Luciferase ABS 11-pt Reconfirmation Dose Response (96hr): Maximum inhibition (%)

Row | Structure (SMILES) | IC50 [1] | IC50 [2] | IC50 [3] | IC50 [4, 5] | IC50 [4, 6] | Emax [4, 7] | Emax [4, 8] | IC50 [4, 9] | Emax [4, 10] | IC50 (P. falciparum Dd2) | Emax (P. falciparum Dd2)
1 | CCS(=O)(=O)N1CCc2ccc(NC(=O)Nc3cccc(C)c3)cc21 [DDD01025922] | 16.6 µM | 3.66 µM | > 50 µM |  |  |  |  |  |  |  | 
2 | CCS(=O)(=O)N1CCc2ccc(NC(=O)Nc3cccc(F)c3)cc21 [DDD01025926] | 17.8 µM | 9.31 µM | > 25 µM |  |  |  |  |  |  |  | 
3 | Cc1cnc(NC(=O)c2csc(NC3CCCC3)n2)s1 [DDD01026924] | > 25 µM | 8.33 µM | 24.8 µM |  |  |  |  |  |  |  | 
4 | CCCc1cc(=O)[nH]c(-n2nc(C3CC3)cc2N)n1 [DDD01027468] | 20.5 µM | 4.69 µM | > 25 µM |  |  |  |  |  |  |  | 
5 | CC(C)c1cc(=O)[nH]c(-n2nc(C3CC3)cc2N)n1 [DDD01027469] | 18.9 µM | 1.61 µM | > 25 µM |  |  |  |  |  |  |  | 
6 | Cc1cc(C(=O)N2CCN(c3nc4c(C(C)C)cccc4s3)CC2)no1 [DDD01027513] | > 25 µM | 0.822 µM | > 50 µM |  |  |  |  |  |  |  | 
7 | Cc1cc(C(=O)N2CCN(c3nc4c(C(C)C)cccc4s3)CC2)on1 [DDD01027654] | > 25 µM | 4 µM | > 50 µM |  |  |  |  |  |  |  | 
8 | Cc1[nH]/c(=N\C(=O)c2csc(NC3CCCC3)n2)sc1C [DDD01035522] | 11 µM | 0.832 µM | 44.4 µM |  |  |  |  |  |  |  | 
9 | CCS(=O)(=O)N1CCc2ccc(NC(=O)Nc3cccc(SC)c3)cc21 [DDD01035781] | 3.39 µM | 1.38 µM | > 25 µM |  |  |  |  |  |  |  | 
10 | CCOc1ccc(CN2CCCC(c3cc4ncccc4[nH]3)C2)cc1 (stereo not shown) [DDD01057418] | > 25 µM | 5.76 µM | > 25 µM | 1.07 µM | 0.96 µM | 95.5% | 96.8% | 0.872 µM | 100% | 0.934 µM | 95.7%
11 | Fc1ccc(CN2CCCC(c3cc4ncccc4[nH]3)C2)cc1 (stereo not shown) [DDD01057419] | > 25 µM | 8.45 µM | > 25 µM |  |  |  |  |  |  |  | 
12 | COc1cc(C)c(CN2CCc3nc4ccsc4c(=O)n3CC2)cc1C [DDD01059934] | > 25 µM | 8.88 µM | > 25 µM |  |  |  |  |  |  |  | 
13 | O=c1c2sccc2nc2n1CCN(Cc1ccccc1C(F)(F)F)CC2 [DDD01059968] | > 25 µM | 6.77 µM | > 25 µM |  |  |  |  |  |  |  | 
14 | Clc1ccc(-c2ccc(C3CNCCO3)nc2)cc1 (stereo not shown) [DDD01060778] | > 25 µM | < 0.000141 µM | 0.06 µM | 1.38 µM | 0.46 µM | 93% | 97.5% | 1.36 µM | 99.3% | > 12.5 µM | 56.1%
15 | COc1ccc(-c2ccc(C3CNCCO3)nc2)cc1 (stereo not shown) [DDD01061023] | > 50 µM | < 0.000141 µM | 0.03 µM |  |  |  |  |  |  |  | 
16 | CCc1nc(CN2CCCN(c3ncnc4ccccc34)CC2)no1 [DDD01080636] | 1.85 µM | 0.691 µM | > 50 µM |  |  |  |  |  |  |  | 
17 | COc1ccc2cc(C3CN(C(=O)CCNC(C)=O)CCO3)ccc2c1 (stereo not shown) [DDD01248593] | > 25 µM | 0.333 µM | 9.9 µM |  |  |  |  |  |  |  | 

Reference: PMC7155171, “Probing the Open Global Health Chemical Diversity Library for Multistage-Active Starting Points for Next-Generation Antimalarials” (ACS Infectious Diseases, 2020)
